The values below come from US12410171B2, “Tropomyosin receptor kinase (TRK) degradation compounds and methods of use” (Cullgen (Shanghai), Inc., priority 2020, dated 2025).

The target of the experiment is T1, TPM3-TRKA fusion protein (Homo sapiens, UniProt P04629).
T1 construct: The resulted chimeric proteins always retain the kinase domain of TRK proteins; TPM3 (fusion partner, N-terminal part of tropomyosin alpha-3, P06753); endogenous in cells; host or cells: KM12 colon cancer cells; the other entry of the earlier key: TPM3 (P06753, Tropomyosin alpha-3 chain)
T1 sequence (P04629 with tags, fused parts or gaps): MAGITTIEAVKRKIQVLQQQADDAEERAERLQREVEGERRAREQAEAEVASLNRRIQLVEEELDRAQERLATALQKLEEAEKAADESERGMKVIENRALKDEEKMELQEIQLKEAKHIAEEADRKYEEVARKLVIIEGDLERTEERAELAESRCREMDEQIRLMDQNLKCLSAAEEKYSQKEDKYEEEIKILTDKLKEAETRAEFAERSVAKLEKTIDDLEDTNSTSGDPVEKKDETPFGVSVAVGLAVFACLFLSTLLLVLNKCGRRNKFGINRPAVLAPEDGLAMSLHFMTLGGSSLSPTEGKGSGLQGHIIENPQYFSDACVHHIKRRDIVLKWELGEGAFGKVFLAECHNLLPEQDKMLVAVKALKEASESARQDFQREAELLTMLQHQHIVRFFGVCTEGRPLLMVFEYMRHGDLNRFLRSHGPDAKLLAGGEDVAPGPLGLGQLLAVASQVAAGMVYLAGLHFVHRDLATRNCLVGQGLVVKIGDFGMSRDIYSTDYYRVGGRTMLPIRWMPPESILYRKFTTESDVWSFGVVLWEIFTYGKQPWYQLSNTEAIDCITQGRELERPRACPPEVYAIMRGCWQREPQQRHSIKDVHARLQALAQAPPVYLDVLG
Kind of experiment: TPM3-TRKA fusion protein levels in KM12 cells (Western blot). Format: cell-based. The conditions noted are these: for percent degradation of TPM3-TRKA protein at 0.01 µM: 16 h, TPM3-TRKA degradation in KM12 cells at 10 nM compound, category of percentage degradation, read-out: Degradation (at 10 nM). The protocol: KM12 cells were treated with DMSO or indicated compounds at 100 nM for 16 hours.
KM12 cells were treated with DMSO or indicated compounds at 0. 1 nM, 1 nM or 10 nM for 16 hours.
KM12 cells were treated with DMSO or indicated compounds at various concentrations for 16 hours.
KM12 cells were treated with DMSO or indicated compounds at various concentrations for 4 hours.
KM12 cells (a cancer model comprising a colon cancer cell line) were treated with DMSO or indicated compounds at various concentrations for 4 hours.
KM12 cells were treated with heterobifunctional compounds or their corresponding control compounds at 10 nM or 100 nM for 16 hours.
KM12 cells were treated with heterobifunctional compounds or their corresponding control compounds at 0.4-30 nM for 8-16 hours. […] Cells were authenticated using the short tandem repeat (STR) assays. […] Stable cell lines were established by lentivirus transduction, selected and maintained in medium containing 1 μg/mL puromycin (Beyotime Biotechnology).
Cultured cells were washed with cold PBS once and lysed in cold RIPA buffer supplemented with protease inhibitors and phosphatase inhibitors (Beyotime Biotechnology). The solutions were then incubated at 4° C. for 30 minutes with gentle agitation to fully lyse cells. For tumor tissues, tumors were cut into small pieces, milled with cold RIPA buffer using a mechanical homogenizer and lysed for 1 hour at 4° C. Cell lysates were centrifuged at 13,000 rpm for 10 minutes at 4° C. and pellets were discarded. Total protein concentrations in the lysates were determined by BCA assays (Beyotime Biotechnology). Cell lysates were mixed with Laemmli loading buffer to 1× and heated at 99° C. for 5 min. Proteins were resolved on SDS-PAGE and visualized by chemiluminescence. Images were taken by a ChemiDoc MP Imaging system (Bio-Rad). Protein bands were quantitated using the software provided by Bio-Rad.

With `O=C1CCC(N2C(=O)c3cccc(NCCCCCCC(=O)N4CCN(c5cccc(-c6cnc7ccc(N8CCC[C@@H]8c8cccc(F)c8)nn67)n5)CC4)c3C2=O)C(=O)N1` (stereo partly drawn) [CPD-009, 2-(2,6-Dioxopiperidin-3-yl)-4-((7-(4-(6-(6-((R)-2-(3-fluorophenyl)pyrrolidin-1-yl)imidazo[1,2-b]pyridazin-3-yl)pyridin-2-yl)piperazin-1-yl)-7-oxoheptyl)amino) isoindoline-1,3-dione], the percent degradation of TPM3-TRKA protein at 0.01 µM was in the range of 50 to 80%. The same measure, in the same setting: next, `O=C1CCC(N2C(=O)c3cccc(NCCCC(=O)N4CCN(c5cccc(-c6cnc7ccc(N8CCC[C@@H]8c8cccc(F)c8)nn67)n5)CC4)c3C2=O)C(=O)N1` (stereo partly drawn) [CPD-013, 2-(2,6-Dioxopiperidin-3-yl)-4-((4-(4-(6-(6-((R)-2-(3-fluorophenyl)pyrrolidin-1-yl)imidazo[1,2-b]pyridazin-3-yl)pyridin-2-yl)piperazin-1-yl)-4-oxobutyl)amino) isoindoline-1,3-dione]: greater than 80%; `O=C1CCC(N2C(=O)c3cccc(NCCCCC(=O)N4CCN(c5cccc(-c6cnc7ccc(N8CCC[C@@H]8c8cccc(F)c8)nn67)n5)CC4)c3C2=O)C(=O)N1` (stereo partly drawn) [CPD-014, 2-(2,6-Dioxopiperidin-3-yl)-4-((5-(4-(6-(6-((R)-2-(3-fluorophenyl)pyrrolidin-1-yl)imidazo[1,2-b]pyridazin-3-yl)pyridin-2-yl)piperazin-1-yl)-5-oxopentyl)amino) isoindoline-1,3-dione]: greater than 80%. The same measure, in the same setting: next, `O=C1CCC(N2C(=O)c3cccc(NCCCCCC(=O)N4CCN(c5cccc(-c6cnc7ccc(N8CCC[C@@H]8c8cccc(F)c8)nn67)n5)CC4)c3C2=O)C(=O)N1` (stereo partly drawn) [CPD-015, 2-(2,6-Dioxopiperidin-3-yl)-4-((6-(4-(6-(6-((R)-2-(3-fluorophenyl)pyrrolidin-1-yl)imidazo[1,2-b]pyridazin-3-yl)pyridin-2˜yl)piperazin-1-yl)-6-oxohexyl)amino) isoindoline-1,3-dione]: greater than 80%; `Cc1ncsc1-c1ccc(CNC(=O)[C@@H]2C[C@@H](O)CN2C(=O)[C@@H](NC(=O)CCCCCCCCC(=O)N2CCN(c3cccc(-c4cnc5ccc(N6CCC[C@@H]6c6cccc(F)c6)nn45)n3)CC2)C(C)(C)C)cc1` [CPD-017, (28,4R)-1-((S)-2-(10-(4-(6-(6-((R)-2-(3-Fluorophenyl)pyrrolidin-1-yl)imidazo[1,2-b]pyridazin-3-yl)pyridin-2-yl)piperazin-1-yl)-10-oxodecanamido)-3,3-dimethylbutanoyl)-4-hydroxy-N-(4-(4-methylthiazol-S-yl)benzyl)pyrrolidine-2-carboxamide]: less than 50%. Turning to `O=C1CCC(N2C(=O)c3cccc(NCCOCCOCCOCCOCCC(=O)N4CCN(c5cccc(-c6cnc7ccc(N8CCC[C@@H]8c8cccc(F)c8)nn67)n5)CC4)c3C2=O)C(=O)N1` (stereo partly drawn) [CPD-021, 2-(2,6-Dioxopiperidin-3-yl)-4-((15-(4-(6-(6-((R)-2-(3-fluorophenyl)pyrrolidin-1-yl)imidazo[1,2-b]pyridazin-3-yl)pyridin-2-yl)piperazin-1-yl)-15-oxo-3,6,9,12-tetraoxapentadecyl)amino) isoindoline-1,3-dione], the percent degradation of TPM3-TRKA protein at 0.01 µM was greater than 80%. Take `Cc1ncsc1-c1ccc(CNC(=O)[C@@H]2C[C@@H](O)CN2C(=O)[C@@H](NC(=O)CCCCCCCCCC(=O)N2CCN(c3cccc(-c4cnc5ccc(N6CCC[C@@H]6c6cccc(F)c6)nn45)n3)CC2)C(C)(C)C)cc1` [CPD-022, (25,4R)-1-((S)-2-(11-(4-(6-(6-((R)-2-(3-Fluorophenyl)pyrrolidin-1-yl)imidazo[1,2-b]pyridazin-3-yl)pyridin-2-yl)piperazin-1-yl)-11-oxoundecanamido)-3,3-dimethylbutanoyl)-4-hydroxy-N-(4-(4-methylthiazol-5-yl)benzyl)pyrrolidine-2-carboxamide]: the percent degradation of TPM3-TRKA protein at 0.01 µM lay within 50 to 80%.

Take `O=C1CCC(N2C(=O)c3cccc(NCC(=O)N4CCN(c5cccc(-c6cnc7ccc(N8CCC[C@@H]8c8cccc(F)c8)nn67)n5)CC4)c3C2=O)C(=O)N1` (stereo partly drawn) [CPD-023, 2-(2,6-Dioxopiperidin-3-yl)-4-((2˜ (4-(6-(6-((R)-2-(3-fluorophenyl)pyrrolidin-1-yl)imidazo[1,2-b]pyridazin-3-yl)pyridin-2-yl)piperazin-1-yl)-2-oxoethyl)amino) isoindoline-1,3-dione]: the percent degradation of TPM3-TRKA protein at 0.01 µM is greater than 80%. In the case of `O=C1CCC(N2C(=O)c3cccc(NCCCCCCCC(=O)N4CCN(c5cccc(-c6cnc7ccc(N8CCC[C@@H]8c8cccc(F)c8)nn67)n5)CC4)c3C2=O)C(=O)N1` (stereo partly drawn) [CPD-024, 2-(2,6-Dioxopiperidin-3-yl)-4-((8-(4-(6-(6-((R)-2-(3-fluorophenyl)pyrrolidin-1-yl)imidazo[1,2-b]pyridazin-3-yl)pyridin-2-yl)piperazin-1-yl)-8-oxooctyl)amino) isoindoline-1,3-dione], the percent degradation of TPM3-TRKA protein at 0.01 µM is greater than 80%. Same read-out and setting: next, `O=C1CCC(N2C(=O)c3cccc(NCCOCCOCCOCCOCCOCCC(=O)N4CCN(c5cccc(-c6cnc7ccc(N8CCC[C@@H]8c8cccc(F)c8)nn67)n5)CC4)c3C2=O)C(=O)N1` (stereo partly drawn) [CPD-025, 2-(2,6-Dioxopiperidin-3-yl)-4-((18-(4-(6-(6-((R)-2-(3-fluorophenyl)pyrrolidin-1-yl)imidazo[1,2-b]pyridazin-3-yl)pyridin-2-yl)piperazin-1-yl)-18-oxo-3,6,9,12,15-pentaoxaoctadecyl)amino) isoindoline-1,3-dione]: greater than 80%.

On to `O=C1CCC(N2C(=O)c3cccc(NCCC(=O)N4CCN(c5cccc(-c6cnc7ccc(N8CCC[C@@H]8c8cccc(F)c8)nn67)n5)CC4)c3C2=O)C(=O)N1` (stereo partly drawn) [CPD-026, 2-(2,6-Dioxopiperidin-3-yl)-4-((3-(4-(6-(6-((R)-2-(3-fluorophenyl)pyrrolidin-1-yl)imidazo[1,2-b]pyridazin-3-yl)pyridin-2-yl)piperazin-1-yl)-3-oxopropyl)amino) isoindoline-1,3-dione], for which the percent degradation of TPM3-TRKA protein at 0.01 µM is 50 to 80%.

On to `O=C1CCC(N2C(=O)c3cccc(NCCOCCC(=O)N4CCN(c5cccc(-c6cnc7ccc(N8CCC[C@@H]8c8cccc(F)c8)nn67)n5)CC4)c3C2=O)C(=O)N1` (stereo partly drawn) [CPD-027, 2-(2,6-Dioxopiperidin-3-yl)-4˜ ((2-(3-(4˜ (6-(6-((R)-2-(3-fluorophenyl)pyrrolidin-1-yl)imidazo[1,2-b]pyridazin-3-yl)pyridin-2-yl)piperazin-1-yl)-3-oxopropoxy)ethyl)amino) isoindoline-1,3-dione], for which the percent degradation of TPM3-TRKA protein at 0.01 µM was greater than 80%. Moreover, the TPM3-TRKA protein levels result (KM12 cells, 100 nM, indicated incubation time, Western blot (FIG. 2)) was “rapidly reduced TPM3-TRKA protein levels”.

For the compound `O=C1CCC(N2C(=O)c3cccc(NCCOCCOCCC(=O)N4CCN(c5cccc(-c6cnc7ccc(N8CCC[C@@H]8c8cccc(F)c8)nn67)n5)CC4)c3C2=O)C(=O)N1` (stereo partly drawn) [CPD-028, 2-(2,6-Dioxopiperidin-3-yl)-4-((2-(2-(3-(4-(6-(6-((R)-2-(3-fluorophenyl)pyrrolidin-1-yl)imidazo[1,2-b]pyridazin-3-yl)pyridin-2-yl)piperazin-1-yl)-3-oxopropoxy)ethoxy)ethyl)amino) isoindoline-1,3-dione], the percent degradation of TPM3-TRKA protein at 0.01 µM is greater than 80%.
